Test results taken from US10370371B2, “Substituted pyrimidine Bmi-1 inhibitors” (PTC Therapeutics, Inc., priority 2013, dated 2019).

Columns and labels:
Bmi-1 protein = experiment: Sandwich ELISA Assay (Bmi-1 protein level in HT-1080 cells); assay type: cell-based
How it was run: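 HT-1080 cells were treated with compounds (0.5% DMSO final) for 40-48 h at 37 °C. Lysates were assayed by sandwich ELISA: mouse anti-Bmi-1 capture, rabbit anti-Bmi-1 and HRP anti-rabbit detection, TMB read at OD450 (OD570 reference). Levels were quantified against a recombinant GST-Bmi-1 standard curve (125-8000 pg/mL).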

Row | Structure (SMILES) | melting point | EC50 (Bmi-1 protein)
1 | CC(C)c1nc2ccc(F)cc2n1-c1cc(N)nc(Nc2ccc(OC(F)F)cc2)n1 [Cpd 79, N^2-[4-(difluoromethoxy)phenyl]-6-[6-fluoro-2-(propan-2-yl)-1H-benzimidazol-1-yl]pyrimidine-2,4-diamine] | 167 to 169 °C | 10 to 100 nM
2 | Nc1cc(-n2c(C3CC3)nc3cc(F)ccc32)nc(Nc2ccc(OC(F)F)cc2)n1 [Cpd 80, 6-(2-cyclopropyl-5-fluoro-1H-benzimidazol-1-yl)-N^2-[4-(difluoromethoxy)phenyl]pyrimidine-2,4-diamine] | 136 to 138 °C | 10 to 100 nM
3 | CC(C)c1nc2cc(F)ccc2n1-c1cc(N)nc(Nc2ccc(OC(F)F)cc2)n1 [Cpd 81, N^2-[4-(difluoromethoxy)phenyl]-6-[5-fluoro-2-(propan-2-yl)-1H-benzimidazol-1-yl]pyrimidine-2,4-diamine] | 118 to 120 °C | 100 to 3000 nM
4 | Nc1cc(-n2c(C(F)F)nc3ccccc32)nc(Nc2ccc(OC(F)F)cc2)n1 [Cpd 88, N^2-[4-(difluoromethoxy)phenyl]-6-[2-(difluoromethyl)-1H-benzimidazol-1-yl]pyrimidine-2,4-diamine] | 114 to 115 °C | 1 to 10 nM
5 | CC(C)c1nc2ccccc2n1-c1cc(N)nc(Nc2ccc(OC(F)F)cc2)n1 [Cpd 89, N^2-[4-(difluoromethoxy)phenyl]-6-[2-(propan-2-yl)-1H-benzimidazol-1-yl]pyrimidine-2,4-diamine] | 184 to 187 °C | 10 to 100 nM
6 | Nc1cc(-n2c(C3CC3)nc3cc(F)ccc32)nc(Nc2ccc(C(F)(F)F)cc2)n1 [Cpd 103, 6-(2-cyclopropyl-5-fluoro-1H-benzimidazol-1-yl)-N^2-[4-(trifluoromethyl)phenyl]pyrimidine-2,4-diamine] | 237 to 238 °C | 10 to 100 nM
7 | Cc1nc2cc(F)ccc2n1-c1cc(N)nc(Nc2ccc(OC(F)F)c(F)c2)n1 [Cpd 105, N^2-[4-(difluoromethoxy)-3-fluorophenyl]-6-(5-fluoro-2-methyl-1H-benzimidazol-1-yl)pyrimidine-2,4-diamine] | 172 to 173 °C | 10 to 100 nM
8 | COc1ccn2nc(C3CC3)c(-c3cc(N)nc(Nc4ccc(C(F)(F)F)cc4)n3)c2c1 [Cpd 106, 6-(2-cyclopropyl-5-methoxypyrazolo[1,5-a]pyridin-3-yl)-N^2-[4-(trifluoromethyl)phenyl]pyrimidine-2,4-diamine] | 172 to 174 °C | 100 to 3000 nM
9 | CCc1nn2ccc(F)cc2c1-c1cc(N)nc(Nc2ccc(C(F)(F)F)cc2)n1 [Cpd 111, 6-(2-ethyl-5-fluoropyrazolo[1,5-a]pyridin-3-yl)-N^2-[4-(trifluoromethyl)phenyl]pyrimidine-2,4-diamine] | 153 to 157 °C | 10 to 100 nM
10 | Cc1nn2c(=O)n(C)c(C)cc2c1-c1cc(N)nc(Nc2ccc(C(F)(F)F)cc2)n1 [Cpd 117, 3-(6-amino-2-{[4-(trifluoromethyl)phenyl]amino}pyrimidin-4-yl)-2,5,6-trimethylpyrazolo[1,5-c]pyrimidin-7(6H)-one] | 270 to 273 °C | 100 to 3000 nM
11 | Nc1cc(-c2c(C3CC3)nn3ccccc23)nc(Nc2ccc(C(F)(F)F)cc2)n1 [Cpd 126, 6-(2-cyclopropylpyrazolo[1,5-a]pyridin-3-yl)-N^2-[4-(trifluoromethyl)phenyl]pyrimidine-2,4-diamine] | 181 to 183 °C | 100 to 3000 nM
12 | COc1ccc(Nc2nc(N)cc(-n3c(C)nc4ccccc43)n2)cc1 [Cpd 129, N^2-(4-methoxyphenyl)-6-(2-methyl-1H-benzimidazol-1-yl)pyrimidine-2,4-diamine] | 149 to 150 °C | ≤ 1 nM
13 | Cc1nc2ccccc2n1-c1cc(N)nc(Nc2ccc3c(c2)OCO3)n1 [Cpd 130, N^2-(1,3-benzodioxol-5-yl)-6-(2-methyl-1H-benzimidazol-1-yl)pyrimidine-2,4-diamine] | 118 to 119 °C | 1 to 10 nM
